Values joined by “and” are separate entries in the source; they are usually repeats but may differ in a detail not shown here. Identical values can stand only once. Inconclusive results and toxic doses are left out. No stated cut-off is given here; in the data, active means T/C of 150% or more; inactive means T/C below 125%.
Test system: L1210 leukemia ip in BDF1 mice, survival T/C
Test: NCI In Vivo Anticancer Drug Screen. Data for tumor model L1210 Leukemia (intraperitoneal) in B6D2F1 (BDF1) mice
Conditions: endpoint: mean survival time, higher = longer survival
Outline: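 Value reflects the ratio of survival in compound-treated mice to survival in vehicle-treated controls, with both groups carrying the same transplanted tumor.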

[1] = dose: 100.0 mg/kg/injection, schedule: Q04DX002 (ip), vehicle: saline
[2] = dose: 200.0 mg/kg/injection, schedule: Q04DX002 (ip), vehicle: saline
[3] = dose: 400.0 mg/kg/injection, schedule: Q04DX002 (ip), vehicle: saline
[4] = dose: 100.0 mg/kg/injection, schedule: Q01DX009 (ip), vehicle: Klucel (hydroxypropylcellulose) (HPC)
[5] = dose: 200.0 mg/kg/injection, schedule: Q01DX009 (ip), vehicle: Klucel (hydroxypropylcellulose) (HPC)
[6] = dose: 400.0 mg/kg/injection, schedule: Q01DX009 (ip), vehicle: Klucel (hydroxypropylcellulose) (HPC)
[7] = dose: 100.0 mg/kg/injection, schedule: Q04DX003 (ip), vehicle: saline
[8] = dose: 200.0 mg/kg/injection, schedule: Q04DX003 (ip), vehicle: saline
[9] = dose: 400.0 mg/kg/injection, schedule: Q04DX003 (ip), vehicle: saline
[10] = dose: 100.0 mg/kg/injection, schedule: Q04DX003 (ip), vehicle: Klucel (hydroxypropylcellulose) (HPC)

Measured: T/C

Cc1c[nH]c(=O)[nH]1
inactive: [1] 109 % of control | [2] 106 % of control | [3] 117 % of control

OCC1C2CCC(C2)C1c1ccccc1 (stereo unspecified)
inactive: dose: 9.38 mg/kg/injection, schedule: Q01DX001 (ip), vehicle: saline 103 % of control

CC(C)(C)C(=O)Nc1ccc(F)cc1
inactive: [4] 110 % of control | [5] 94 % of control | [6] 116 % of control

NC(=S)N/N=C/c1cccn1Cc1cc2c(cc1[N+](=O)[O-])OCO2
inactive: dose: 25.0 mg/kg/injection, schedule: Q04DX002 (ip), vehicle: Klucel (hydroxypropylcellulose) (HPC) 100 % of control | dose: 50.0 mg/kg/injection, schedule: Q04DX002 (ip), vehicle: Klucel (hydroxypropylcellulose) (HPC) 96 % of control | dose: 100.0 mg/kg/injection, schedule: Q04DX002 (ip), vehicle: Klucel (hydroxypropylcellulose) (HPC) 104 % of control

CCOc1ccn(C2OC(COC(C)=O)C(OC3OC(COC(C)=O)C(OC(C)=O)C(OC(C)=O)C3OC(C)=O)C(OC(C)=O)C2OC(C)=O)c(=O)n1 (stereo unspecified)
inactive: dose: 22.5 mg/kg/injection, schedule: Q01DX001 (ip), vehicle: carboxymethylcellulose (CMC) 120 % of control | dose: 45.0 mg/kg/injection, schedule: Q01DX001 (ip), vehicle: carboxymethylcellulose (CMC) 103 % of control | dose: 90.0 mg/kg/injection, schedule: Q01DX001 (ip), vehicle: carboxymethylcellulose (CMC) 100 % of control | dose: 180.0 mg/kg/injection, schedule: Q01DX001 (ip), vehicle: carboxymethylcellulose (CMC) 100 % of control

CN(C)CCSc1ncnc2nc[nH]c12
inactive: [7] 94 % of control | [8] 99 % of control | [9] 89 % of control

O=C1c2ccccc2-c2ccc(-c3ccccc3)c3ccc(CCc4ccccc4)c1c23
inactive: dose: 100.0 mg/kg/injection, schedule: Q04DX003 (ip), vehicle: saline with Tween-80 100 % of control | dose: 200.0 mg/kg/injection, schedule: Q04DX003 (ip), vehicle: saline with Tween-80 89 % of control | dose: 400.0 mg/kg/injection, schedule: Q04DX003 (ip), vehicle: saline with Tween-80 89 % of control

CC1CCCCN1P(=[Se])(c1ccccc1)N1CCCCC1C (stereo unspecified)
inactive: dose: 25.0 mg/kg/injection, schedule: Q04DX003 (ip), vehicle: Klucel (hydroxypropylcellulose) (HPC) 97 % of control | dose: 50.0 mg/kg/injection, schedule: Q04DX003 (ip), vehicle: Klucel (hydroxypropylcellulose) (HPC) 103 % of control | [10] 100 % of control and 90 % of control

CC(C)CCc1nc2c(c(=O)n(C)c(=O)n2C)n1C
inactive: dose: 50.0 mg/kg/injection, schedule: Q01DX001 (ip), vehicle: carboxymethylcellulose (CMC) 116 % of control | dose: 100.0 mg/kg/injection, schedule: Q01DX001 (ip), vehicle: carboxymethylcellulose (CMC) 103 % of control | dose: 200.0 mg/kg/injection, schedule: Q01DX001 (ip), vehicle: carboxymethylcellulose (CMC) 103 % of control | dose: 400.0 mg/kg/injection, schedule: Q01DX001 (ip), vehicle: carboxymethylcellulose (CMC) 103 % of control

NNC(=O)Cc1csc2ccccc12
inactive: dose: 55.5 mg/kg/injection, schedule: Q01DX Z (ip), vehicle: carboxymethylcellulose (CMC) 102 % of control | dose: 83.3 mg/kg/injection, schedule: Q01DX Z (ip), vehicle: carboxymethylcellulose (CMC) 114 % of control | dose: 125.0 mg/kg/injection, schedule: Q01DX Z (ip), vehicle: carboxymethylcellulose (CMC) 119 % of control

C=C(CSCC(=O)O)c1ccccc1
inactive: [1] 105 % of control | [2] 97 % of control | [3] 97 % of control

CCc1cc2c(cc1C(=O)CBr)C(C)(C)CCC2(C)C
inactive: dose: 6.25 mg/kg/injection, schedule: Q01DX009 (ip), vehicle: saline with Tween-80 103 % of control | dose: 12.5 mg/kg/injection, schedule: Q01DX009 (ip), vehicle: saline with Tween-80 109 % of control | dose: 12.5 mg/kg/injection, schedule: Q04DX003 (ip), vehicle: saline 100 % of control | dose: 25.0 mg/kg/injection, schedule: Q04DX003 (ip), vehicle: saline 102 % of control

CCCCCCCCCCCCCCCC[N+]1(CC)CCOCC1
inactive: dose: 5.0 mg/kg/injection, schedule: Q01DX001 (ip), vehicle: Klucel (hydroxypropylcellulose) (HPC) 97 % of control | dose: 5.0 mg/kg/injection, schedule: Q01DX001 (ip), vehicle: saline 100 % of control | dose: 5.0 mg/kg/injection, schedule: Q01DX009 (ip), vehicle: Klucel (hydroxypropylcellulose) (HPC) 98 % of control and 103 % of control | dose: 10.0 mg/kg/injection, schedule: Q01DX001 (ip), vehicle: Klucel (hydroxypropylcellulose) (HPC) 113 % of control | dose: 10.0 mg/kg/injection, schedule: Q01DX001 (ip), vehicle: saline 103 % of control | dose: 10.0 mg/kg/injection, schedule: Q01DX009 (ip), vehicle: saline 121 % of control and 88 % of control | dose: 10.0 mg/kg/injection, schedule: Q04DX002 (ip), vehicle: Klucel (hydroxypropylcellulose) (HPC) 98 % of control and 108 % of control | dose: 10.0 mg/kg/injection, schedule: Q04DX002 (ip), vehicle: saline 95 % of control | dose: 20.0 mg/kg/injection, schedule: Q01DX001 (ip), vehicle: Klucel (hydroxypropylcellulose) (HPC) 111 % of control | dose: 20.0 mg/kg/injection, schedule: Q01DX001 (ip), vehicle: saline 103 % of control | dose: 20.0 mg/kg/injection, schedule: Q04DX002 (ip), vehicle: Klucel (hydroxypropylcellulose) (HPC) 98 % of control and 101 % of control | dose: 20.0 mg/kg/injection, schedule: Q04DX002 (ip), vehicle: saline 102 % of control | dose: 40.0 mg/kg/injection, schedule: Q04DX002 (ip), vehicle: Klucel (hydroxypropylcellulose) (HPC) 90 % of control | dose: 40.0 mg/kg/injection, schedule: Q04DX002 (ip), vehicle: saline 95 % of control and 98 % of control | dose: 200.0 mg/kg/injection, schedule: Q04DX002 (ip), vehicle: Klucel (hydroxypropylcellulose) (HPC) 93 % of control | dose: 400.0 mg/kg/injection, schedule: Q04DX002 (ip), vehicle: Klucel (hydroxypropylcellulose) (HPC) 88 % of control

OCc1cccc(F)c1
inactive: dose: 100.0 mg/kg/injection, schedule: Q01DX009 (ip), vehicle: saline 98 % of control | [7] 105 % of control | dose: 200.0 mg/kg/injection, schedule: Q01DX009 (ip), vehicle: saline 95 % of control | [8] 102 % of control | dose: 400.0 mg/kg/injection, schedule: Q01DX009 (ip), vehicle: saline 98 % of control | [9] 104 % of control

CN=C(NC)c1ccc(NC(=O)/C=C/C(=O)Nc2ccc(C(=NC)NC)cc2)cc1
inactive: dose: 12.5 mg/kg/injection, schedule: Q01DX Z (ip), vehicle: carboxymethylcellulose (CMC) 97 % of control | dose: 25.0 mg/kg/injection, schedule: Q01DX Z (ip), vehicle: carboxymethylcellulose (CMC) 91 % of control | dose: 50.0 mg/kg/injection, schedule: Q01DX Z (ip), vehicle: carboxymethylcellulose (CMC) 99 % of control

Cc1cc2c(cc1C)NC(=O)CC(=O)N2
inactive: [4] 96 % of control and 97 % of control | [10] 92 % of control | [5] 86 % of control | dose: 200.0 mg/kg/injection, schedule: Q04DX003 (ip), vehicle: Klucel (hydroxypropylcellulose) (HPC) 100 % of control | [6] 89 % of control | dose: 400.0 mg/kg/injection, schedule: Q04DX003 (ip), vehicle: Klucel (hydroxypropylcellulose) (HPC) 89 % of control

CCCCc1c(-c2ccccc2)nc(N)[nH]c1=O
inactive: dose: 100.0 mg/kg/injection, schedule: Q01DX001 (ip), vehicle: Klucel (hydroxypropylcellulose) (HPC) 103 % of control | dose: 200.0 mg/kg/injection, schedule: Q01DX001 (ip), vehicle: Klucel (hydroxypropylcellulose) (HPC) 102 % of control | dose: 400.0 mg/kg/injection, schedule: Q01DX001 (ip), vehicle: Klucel (hydroxypropylcellulose) (HPC) 104 % of control

Source: PubChem BioAssay AID248 (DTP/NCI, 2004)
